According to patent US20190210973A1, “COMPOUNDS AND METHODS FOR TREATMENT OF CYSTIC FIBROSIS” (The Curators of the University of Missouri, priority 2018, published 2019):
Several values for one entry are separate records, joined by “and”; a condition that tells them apart may be missing. Identical values can stand only once.

Key:
G551D-CFTR [1] = biological target: T1, G551D-CFTR (Homo sapiens, UniProt P13569, G551D); test: Patch-clamp recording of G551D-CFTR currents in excised inside-out patches of transfected CHO cells; type: cell-based
T1 construct: The cDNA constructs of CFTR (G551D and delF508) were co-transfected with peGFP-C3; expressed in transfected cells; host or cells: CHO cells (ATCC), transient co-transfection with pEGFP-C3 (GFP as a separate marker, not fused)
T1 sequence (P13569 whole entry G551D, the tested form may be a part): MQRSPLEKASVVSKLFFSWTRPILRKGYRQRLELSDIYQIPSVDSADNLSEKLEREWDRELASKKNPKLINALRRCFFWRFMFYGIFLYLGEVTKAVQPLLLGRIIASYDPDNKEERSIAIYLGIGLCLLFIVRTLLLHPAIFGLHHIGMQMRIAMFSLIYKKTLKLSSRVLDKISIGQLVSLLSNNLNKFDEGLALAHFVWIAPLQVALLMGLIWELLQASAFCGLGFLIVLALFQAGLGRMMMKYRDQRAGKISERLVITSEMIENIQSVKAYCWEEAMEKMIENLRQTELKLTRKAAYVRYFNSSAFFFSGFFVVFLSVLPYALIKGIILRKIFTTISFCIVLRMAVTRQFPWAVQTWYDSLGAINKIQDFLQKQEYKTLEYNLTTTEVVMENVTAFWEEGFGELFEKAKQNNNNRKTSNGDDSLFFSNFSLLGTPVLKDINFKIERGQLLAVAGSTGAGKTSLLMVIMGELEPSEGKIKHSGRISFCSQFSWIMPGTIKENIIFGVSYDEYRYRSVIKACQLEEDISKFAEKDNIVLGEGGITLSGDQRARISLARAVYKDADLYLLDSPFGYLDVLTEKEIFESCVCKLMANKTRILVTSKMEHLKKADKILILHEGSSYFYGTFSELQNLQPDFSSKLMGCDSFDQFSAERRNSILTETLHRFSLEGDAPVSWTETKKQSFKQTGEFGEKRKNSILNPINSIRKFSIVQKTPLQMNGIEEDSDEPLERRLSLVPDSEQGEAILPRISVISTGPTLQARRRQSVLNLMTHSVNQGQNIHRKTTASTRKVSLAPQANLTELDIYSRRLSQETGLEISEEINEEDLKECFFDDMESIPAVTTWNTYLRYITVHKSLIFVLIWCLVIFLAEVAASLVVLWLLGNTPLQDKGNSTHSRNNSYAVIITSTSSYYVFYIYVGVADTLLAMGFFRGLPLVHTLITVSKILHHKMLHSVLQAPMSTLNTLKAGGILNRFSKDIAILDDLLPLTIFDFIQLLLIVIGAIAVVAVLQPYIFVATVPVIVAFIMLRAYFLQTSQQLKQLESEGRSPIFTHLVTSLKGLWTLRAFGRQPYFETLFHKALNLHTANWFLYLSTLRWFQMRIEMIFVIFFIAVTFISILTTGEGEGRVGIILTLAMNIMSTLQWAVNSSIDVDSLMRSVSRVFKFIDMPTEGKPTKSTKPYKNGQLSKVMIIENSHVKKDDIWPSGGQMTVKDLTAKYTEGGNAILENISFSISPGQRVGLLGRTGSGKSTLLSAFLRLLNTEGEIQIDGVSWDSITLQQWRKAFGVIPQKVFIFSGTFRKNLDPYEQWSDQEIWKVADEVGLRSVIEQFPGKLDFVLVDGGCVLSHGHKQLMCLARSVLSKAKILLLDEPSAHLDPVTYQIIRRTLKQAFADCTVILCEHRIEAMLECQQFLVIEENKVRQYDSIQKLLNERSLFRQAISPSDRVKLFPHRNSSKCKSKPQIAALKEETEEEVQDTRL
Text: (§1) Patch-clamp is considered the gold standard for assessing directly ion channel function in real time. By attaching a glass microelectrode on the surface of a cell, it is possible to record the currents generated by channels proteins that are present in this tiny “patch” of cell membranes. Since millions of ions pass through a single ion channel pore per second, the resulting microscopic currents from a single channel protein molecule can be detected with modem patch-clamp amplifiers. As ion channels (a conductor in electricity term) are arranged in parallel in the cell membrane, it is also possible to assay a group of ion channels by monitoring macroscopic currents representing the sum of currents from individual channels. Microscopic recordings allow artisans to examine exquisitely the effects of compounds on the Po and kinetic parameters of CFTR channels; whereas macroscopic recordings provide an assay not only to quantify the overall effects of compounds on N×Po×i, but also monitor the stability of the CFTR currents in real time.
(§2) Chinese hamster ovary (CHO) cells were grown at 37° C. in Dulbecco's modified Eagle's medium supplemented with 10% fetal bovine serum. Cells were subcultured into 35-mm tissue culture dishes 1 day before transfection. PolyFect transfection reagent (QIAGEN) was used to cotransfect CFTR cDNA and pEGFP-C3 (Takara Bio Inc.), which encodes green fluorescence proteins, into CHO cells. After transfection, cells were incubated at 27° C. for at least 2 days before electrophysiological experiments were performed.
(§3) Glass chips carrying the transfected cells were transferred to a chamber located on the stage of an inverted microscope (IX51; Olympus). Borosilicate capillary glasses were used to make patch pipettes using a two-stage micropipette puller (PP-81, Narishige, Japan). The pipettes were polished with a homemade microforge to a resistance of 2-4 MΩ in the bath solution. Once the seal resistance reached >40 GΩ, membrane patches were excised into an inside-out mode. Subsequently, the pipette was moved to the outlet of a three-barrel perfusion system and perfused with 25 IU PKA and 2 mM ATP until the CFTR current reached a steady state. A patch-clamp amplifier (EPC10, HEKA, Germany) was used to record electrophysiological data at room temperature. The data were filtered online at 100 Hz with an eight-pole Bessel filter (LPF-8; Warner Instruments) and digitized to a computer at a sampling rate of 500 Hz. […] Membrane potential was held at −30 or −50 mV for all recordings.
(§4) Disease-causing mutations (G551D and delF508) were made with PCR-based site-directed mutagenesis using the Pfu Ultra II (Agilent Technologies). […] The cDNA constructs of CFTR (G551D and delF508) were co-transfected with peGFP-C3 (Takara Bio Inc.) encoding the green fluorescent protein into CHO cells using PolyFect transfection reagent (QIAGEN). The transfected cells were transferred into 35 mm tissue culture dishes containing one layer of sterilized glass chips for cells to grow on. The transfected cells were incubated at 27° C. for 2-7 days before electrophysiological experiments were performed.
(§5) All patch-clamp experiments were carried out in the excised inside-out configuration. Micropipettes made of borosilicate capillary glass were pulled with a two-stage vertical puller (Narishige) and then fire-polished with a homemade microforge to reach a pipet resistance of 2-4 MΩ when the pipettes were filled with a standard inside-out pipet solution that contains: 140 mM N-Methyl-D-glucamine-Cl (NMDG-Cl), 2 mM MgCl2, 5 mM CaCl2) and 10 mM HEPES, adjusted to pH 7.4 with NMDG.

delF508-CFTR [2] = biological target: T2, delF508-CFTR (Homo sapiens, UniProt P13569, DEL508-508); test: Patch-clamp recording of delF508-CFTR currents in excised inside-out patches of transfected CHO cells; type: cell-based
T2 sequence (P13569 with tags, fused parts or gaps DEL508-508): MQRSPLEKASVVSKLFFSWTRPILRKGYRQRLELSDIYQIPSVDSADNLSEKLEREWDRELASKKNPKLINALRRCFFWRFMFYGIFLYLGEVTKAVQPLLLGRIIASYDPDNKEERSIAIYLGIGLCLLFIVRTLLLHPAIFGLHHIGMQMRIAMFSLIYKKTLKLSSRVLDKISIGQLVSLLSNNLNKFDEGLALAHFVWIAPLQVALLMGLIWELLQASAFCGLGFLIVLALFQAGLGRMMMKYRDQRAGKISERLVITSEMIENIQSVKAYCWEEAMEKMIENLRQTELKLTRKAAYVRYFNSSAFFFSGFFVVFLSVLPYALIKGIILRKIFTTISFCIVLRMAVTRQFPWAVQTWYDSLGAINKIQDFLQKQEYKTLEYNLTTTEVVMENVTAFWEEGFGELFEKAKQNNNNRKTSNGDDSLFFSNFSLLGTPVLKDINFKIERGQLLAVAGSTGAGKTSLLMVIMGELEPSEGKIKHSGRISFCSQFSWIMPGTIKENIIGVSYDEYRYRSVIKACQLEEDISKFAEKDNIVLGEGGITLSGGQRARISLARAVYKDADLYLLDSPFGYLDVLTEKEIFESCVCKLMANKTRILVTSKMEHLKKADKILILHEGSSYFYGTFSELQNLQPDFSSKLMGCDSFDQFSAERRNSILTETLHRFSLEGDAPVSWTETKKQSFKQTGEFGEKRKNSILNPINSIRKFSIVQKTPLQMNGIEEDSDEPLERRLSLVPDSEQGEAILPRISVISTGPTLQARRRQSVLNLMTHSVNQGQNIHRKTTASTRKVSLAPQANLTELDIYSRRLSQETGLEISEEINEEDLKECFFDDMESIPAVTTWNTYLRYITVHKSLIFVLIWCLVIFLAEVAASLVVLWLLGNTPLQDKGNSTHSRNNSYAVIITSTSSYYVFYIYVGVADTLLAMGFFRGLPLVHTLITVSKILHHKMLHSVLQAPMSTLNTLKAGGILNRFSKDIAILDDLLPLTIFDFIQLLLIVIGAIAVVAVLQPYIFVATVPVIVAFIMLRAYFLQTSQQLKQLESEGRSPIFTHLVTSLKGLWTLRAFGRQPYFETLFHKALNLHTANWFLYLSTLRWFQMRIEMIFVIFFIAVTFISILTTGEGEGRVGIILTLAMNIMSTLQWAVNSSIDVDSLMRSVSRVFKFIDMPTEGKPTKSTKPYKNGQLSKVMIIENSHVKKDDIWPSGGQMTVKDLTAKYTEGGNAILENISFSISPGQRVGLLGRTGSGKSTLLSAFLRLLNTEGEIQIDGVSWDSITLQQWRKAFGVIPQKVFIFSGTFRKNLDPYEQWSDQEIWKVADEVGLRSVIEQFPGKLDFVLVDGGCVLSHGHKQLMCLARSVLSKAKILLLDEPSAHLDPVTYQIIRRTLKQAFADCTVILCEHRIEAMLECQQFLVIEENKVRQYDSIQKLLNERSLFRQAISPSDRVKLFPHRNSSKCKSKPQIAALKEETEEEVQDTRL
Text: as §1, §2, §3, §4, §5

G551D-CFTR [3] = biological target: T1, G551D-CFTR; conditions: cited from earlier work
delF508-CFTR [4] = biological target: T2, delF508-CFTR; parameters: delF508 stably-transfected C127 cells were cultured in DMEM with 10% FBS in 6-well plates; expressed in transfected cells; host or cells: C127 cells stably expressing delF508-CFTR; conditions: Kopeikin et al., J. Cys. Fibro. 2014; cited from earlier work

CC(C)(C)c1cc(C(C)(C)C)c(NC(=O)c2c[nH]c3ccccc3c2=O)cc1O [VX-770, Ivacaftor, reference compound]
fold increase of mean G551D-CFTR current (G551D-CFTR [1]; 200 nM VX-770 alone): around 10 folds | effect on G551D-CFTR currents, compound alone (G551D-CFTR [1]; after activation by PKA and ATP): increased the current to approximately the same level as LZH-00014 | fold increase of mean delF508-CFTR current (delF508-CFTR [2]; 200 nM VX-770 alone): ~10 folds | rundown of delF508-CFTR current in the presence of the compound (delF508-CFTR [2]; real-time current trace, FIG. 10): immediately starts to decline | increase of the Po of G551D-CFTR (G551D-CFTR [3]; Jih et al., PNAS 2013): 8-10 folds | function of G551D-CFTR relative to wild-type / normal (G551D-CFTR [3]; with Ivacaftor, literature): < 10% and ~10% | Po of delF508-CFTR in the presence of Ivacaftor (delF508-CFTR [4]): above 0.4
